Key:
HCT116-MTAP-KO = experiment: Cell killing in HCT116 isogenic pair (Cell Titer-Glo viability), MTAP knock-out cells; type: cell-based, human; details: Homo sapiens, HCT-116, 144 h, 6 days incubation, 0-10 μM, * = more than 50% viability inhibition at tested concentration without a full curve
Source text: (§1) HCT116 cell line (ATCC, CCL-247) was isolated from the colon of an adult with colon cancer. It has a mutation in codon 13 of the ras proto-oncogene and can be used as a positive control for PCR assays of mutation in this codon. HCT116-MTAP-KO was knocked-out-MTAP-gene based HCT116, and a single clone was passed for this assay. HCT116-mock-RNA-KO was knocked-out-mock-gene based HCT116 with MTAP wildtype genotype. The base medium for HCT116 isogenic pair is RPMI 1640, HEPES (Gibco, 22400105). To make the complete growth medium, added the following components to the base medium: fetal bovine serum to a final concentration of 10% (Gibco, 10099-141C). The cell line was grown in a humidified 5% CO2 atmosphere at 37° C. and regularly tested for the presence of mycoplasma with MpcoAlert™ PLUS Mycoplasma Detection Kit (Lonzak LT07-710).
(§2) • Seeded HCT116-mock-RNA-KO (4E2/well) or HCT116-MTAP-KO (4E2/well) cells into a 96-well plate (Greiner: 655090), 100 μL/well. • Incubated at 37° C., 5% CO2, overnight. • Added 50 μL fresh growth medium containing serial dilution of test compounds for a final test compound concentration of 0-10 μM to each well. • Incubated at 37° C., 5% CO2, 6 days. • The cell viability was detected by Cell Titer-Glo (Promega, G7573). Added 70 μL of CeliTiter-Glo® reagent in each well. • Incubated at room temperature for 10 minutes to stabilize luminescent signal. • Analyzed with Microplate Reader (TECAN, SPARK) and fit IC50 using Prism® 9.

HCT116-mock-RNA-KO = experiment: Cell killing in HCT116 isogenic pair (Cell Titer-Glo viability), mock knock-out cells with MTAP wildtype genotype; type: cell-based, human; details: Homo sapiens, HCT-116, 144 h, 6 days incubation, 0-10 μM
Source text: as §1, §2

Row | Compound | IC50 (HCT116-MTAP-KO) [nM] | IC50 (HCT116-mock-RNA-KO) [nM]
1 | Nc1nc2cc(C(=O)N(Cc3ccc(-c4c(F)cncc4F)cn3)[C@@H]3CCCc4cccnc43)[nH]c2c2c1COC2 [Example 1, (R)-5-amino-N-((3′,5′-difluoro-[3,4′-bipyridin]-6-yl)methyl)-N-(5,6,7,8-tetrahydroquinolin-8-yl)-6,8-dihydro-1H-furo[3,4-d]pyrrolo[3,2-b]pyridine-2-carboxamide] | < 1.5 | 4.6
2 | Nc1nc2cc(C(=O)N(Cc3ccc(-c4c(F)cccc4F)cn3)[C@@H]3CCCc4cccnc43)[nH]c2c2c1COC2 [Example 2, (R)-5-amino-N-((5-(2,6-difluorophenyl)pyridin-2-yl)methyl)-N-(5,6,7,8-tetrahydroquinolin-8-yl)-6,8-dihydro-1H-furo[3,4-d]pyrrolo[3,2-b]pyridine-2-carboxamide] | 3.3 | 23
3 | Nc1nc2cc(C(=O)N(Cc3c(F)cccc3F)Cc3c(F)cccc3F)[nH]c2c2c1COC2 [Example 3, 5-amino-N,N-bis(2,6-difluorobenzyl)-6,8-dihydro-1H-furo[3,4-d]pyrrolo[3,2-b]pyridine-2-carboxamide] | 2.4 | 221
4 | CO[C@@H]1CCOC[C@H]1N(Cc1ccc(-c2c(F)cccc2F)cn1)C(=O)c1cc2nc(N)c3c(c2[nH]1)COC3 [Example 4, 5-amino-N-((5-(2,6-difluorophenyl)pyridin-2-yl)methyl)-N-((3R,4R)-4-methoxytetrahydro-2H-pyran-3-yl)-6,8-dihydro-1H-furo[3,4-d]pyrrolo[3,2-b]pyridine-2-carboxamide] | 2.3 | 99
5 | Nc1nc2cc(C(=O)N(Cc3c(F)cccc3F)[C@@H]3CCCc4cccnc43)[nH]c2c2c1COC2 [Example 5, (R)-5-amino-N-(2,6-difluorobenzyl)-N-(5,6,7,8-tetrahydroquinolin-8-yl)-6,8-dihydro-1H-furo[3,4-d]pyrrolo[3,2-b]pyridine-2-carboxamide] | 4 | 76
6 | Nc1nc2cc(C(=O)N(Cc3ccc(-c4c(F)cccc4F)cc3F)[C@@H]3CCCc4cccnc43)[nH]c2c2c1COC2 [Example 6, (R)-5-amino-N-(5,6,7,8-tetrahydroquinolin-8-yl)-N-((2′,3,6′-trifluoro-[1,1′-biphenyl]-4-yl)methyl)-6,8-dihydro-1H-furo[3,4-d]pyrrolo[3,2-b]pyridine-2-carboxamide] | 11 | 40
7 | Nc1nc2cc(C(=O)N(Cc3ncccc3F)Cc3ncccc3F)[nH]c2c2c1COC2 [Example 7, 5-amino-N,N-bis((3-fluoropyridin-2-yl)methyl)-6,8-dihydro-1H-furo[3,4-d]pyrrolo[3,2-b]pyridine-2-carboxamide] | 30 | 3140
8 | COCC(C)N(Cc1c(F)cccc1F)C(=O)c1cc2nc(N)c3c(c2[nH]1)COC3 (centres unmarked) [Example 8, 5-amino-N-(2,6-difluorobenzyl)-N-(1-methoxypropan-2-yl)-6,8-dihydro-1H-furo[3,4-d]pyrrolo[3,2-b]pyridine-2-carboxamide] | 34 | 2750
9 | COCC(COC)N(Cc1c(F)cccc1F)C(=O)c1cc2nc(N)c3c(c2[nH]1)COC3 [Example 9, 5-amino-N-(2,6-difluorobenzyl)-N-(1,3-dimethoxypropan-2-yl)-6,8-dihydro-1H-furo[3,4-d]pyrrolo[3,2-b]pyridine-2-carboxamide] | 46 | 3440
10 | Nc1nc2cc(C(=O)N(Cc3c(F)cncc3F)[C@@H]3CCCc4cccnc43)[nH]c2c2c1COC2 [Example 10, (R)-5-amino-N-((3,5-difluoropyridin-4-yl)methyl)-N-(5,6,7,8-tetrahydroquinolin-8-yl)-6,8-dihydro-1H-furo[3,4-d]pyrrolo[3,2-b]pyridine-2-carboxamide] | 4.6 | 247
11 | N#Cc1cnccc1-c1ccc(CN(C(=O)c2cc3nc(N)c4c(c3[nH]2)COC4)[C@@H]2CCCc3cccnc32)nc1 [Example 11, (R)-5-amino-N-((3′-cyano-[3,4′-bipyridin]-6-yl)methyl)-N-(5,6,7,8-tetrahydroquinolin-8-yl)-6,8-dihydro-1H-furo[3,4-d]pyrrolo[3,2-b]pyridine-2-carboxamide] | 3.8 | 69
12 | Nc1nc2cc(C(=O)N(Cc3ccc(-c4c(F)cccc4F)cn3)[C@@H]3CCOc4ccccc43)[nH]c2c2c1COC2 [Example 12, 5-amino-N-(chroman-4-yl)-N-((5-(2,6-difluorophenyl)pyridin-2-yl)methyl)-6,8-dihydro-1H-furo[3,4-d]pyrrolo[3,2-b]pyridine-2-carboxamide] | 29 | 1910
13 | Nc1nc2cc(C(=O)N(Cc3ccc(-c4c(F)cccc4F)cn3)Cc3c(F)cccc3F)[nH]c2c2c1COC2 [Example 13, 5-amino-N-(2,6-difluorobenzyl)-N-((5-(2,6-difluorophenyl)pyridin-2-yl)methyl)-6,8-dihydro-1H-furo[3,4-d]pyrrolo[3,2-b]pyridine-2-carboxamide] | 4.6 | 251
14 | CO[C@@H]1CCOC[C@H]1N(Cc1ccc(-c2c(F)cccc2F)cc1F)C(=O)c1cc2nc(N)c3c(c2[nH]1)COC3 [Example 14, 5-amino-N-((3R,4R)-4-methoxytetrahydro-2H-pyran-3-yl)-N-((2′,3,6′-trifluoro-[1,1′-biphenyl]-4-yl)methyl)-6,8-dihydro-1H-furo[3,4-d]pyrrolo[3,2-b]pyridine-2-carboxamide] | < 1.5 | 554
15 | CO[C@@H]1CCOC[C@H]1N(Cc1ccc(-c2c(F)cncc2F)cn1)C(=O)c1cc2nc(N)c3c(c2[nH]1)COC3 [Example 15, 5-amino-N-((3′,5′-difluoro-[3,4′-bipyridin]-6-yl)methyl)-N-((3R,4R)-4-methoxytetrahydro-2H-pyran-3-yl)-6,8-dihydro-1H-furo[3,4-d]pyrrolo[3,2-b]pyridine-2-carboxamide] | 8.1 | 225
16 | COCC(COC)N(Cc1ccc(-c2c(F)cccc2F)cn1)C(=O)c1cc2nc(N)c3c(c2[nH]1)COC3 [Example 16, 5-amino-N-((5-(2,6-difluorophenyl)pyridin-2-yl)methyl)-N-(1,3-dimethoxypropan-2-yl)-6,8-dihydro-1H-furo[3,4-d]pyrrolo[3,2-b]pyridine-2-carboxamide] | 1 | 165
17 | C[C@@H](c1ncccn1)N(Cc1ccc(-c2c(F)cccc2F)cn1)C(=O)c1cc2nc(N)c3c(c2[nH]1)COC3 [Example 17, (S)-5-amino-N-((5-(2,6-difluorophenyl)pyridin-2-yl)methyl)-N-(1-(pyrimidin-2-yl)ethyl)-6,8-dihydro-1H-furo[3,4-d]pyrrolo[3,2-b]pyridine-2-carboxamide] | 8.2 | 1050
18 | C[C@H](c1ncccn1)N(Cc1ccc(-c2c(F)cccc2F)cn1)C(=O)c1cc2nc(N)c3c(c2[nH]1)COC3 [Example 18, (R)-5-amino-N-((5-(2,6-difluorophenyl)pyridin-2-yl)methyl)-N-(1-(pyrimidin-2-yl)ethyl)-6,8-dihydro-1H-furo[3,4-d]pyrrolo[3,2-b]pyridine-2-carboxamide] | 1.8 | 96
19 | Nc1nc2cc(C(=O)N(Cc3ccc(-c4c(F)cccc4F)cc3F)[C@@H]3CCOc4cccnc43)[nH]c2c2c1COC2 [Example 19, (R)-5-amino-N-(3,4-dihydro-2H-pyrano[3,2-b]pyridin-4-yl)-N-((2′,3,6′-trifluoro-[1,1′-biphenyl]-4-yl)methyl)-6,8-dihydro-1H-furo[3,4-d]pyrrolo[3,2-b]pyridine-2-carboxamide] | < 1.5 | 185
20 | Nc1nc2cc(C(=O)N(Cc3ccc(-c4c(F)cccc4F)cc3F)[C@H]3CCOc4cccnc43)[nH]c2c2c1COC2 [Example 20, (S)-5-amino-N-(3,4-dihydro-2H-pyrano[3,2-b]pyridin-4-yl)-N-((2′,3,6′-trifluoro-[1,1′-biphenyl]-4-yl)methyl)-6,8-dihydro-1H-furo[3,4-d]pyrrolo[3,2-b]pyridine-2-carboxamide] | 658 | 4000
21 | N#Cc1cc(F)c(CN(C(=O)c2cc3nc(N)c4c(c3[nH]2)COC4)[C@@H]2CCCc3cccnc32)c(F)c1 [Example 21, (R)-5-amino-N-(4-cyano-2,6-difluorobenzyl)-N-(5,6,7,8-tetrahydroquinolin-8-yl)-6,8-dihydro-1H-furo[3,4-d]pyrrolo[3,2-b]pyridine-2-carboxamide] | < 1.5 | 7
22 | N#Cc1cc(F)c(CN(Cc2c(F)cccc2F)C(=O)c2cc3nc(N)c4c(c3[nH]2)COC4)c(F)c1 [Example 22, 5-amino-N-(4-cyano-2,6-difluorobenzyl)-N-(2,6-difluorobenzyl)-6,8-dihydro-1H-furo[3,4-d]pyrrolo[3,2-b]pyridine-2-carboxamide] | < 1.5 | 11
